Results taken from patent US20230024302A1, “2,3,5-TRISUBSTITUTED PYRAZOLO[1,5-A]PYRIMIDINE COMPOUNDS” (Arcus Biosciences, Inc., priority 2019, published 2023).
Where two headings read alike, the source gives them in different places.

Tests used:
PI3Kγ = target: T1, PI3Kγ (Homo sapiens, UniProt P48736); experiment: PI3Kγ cellular assay in THP-1 cells (AKT pS473 AlphaLISA); assay type: cell-based
T1 construct: host or cells: THP-1
Summary of the method: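 Serum-starved THP-1 cells (1.8×10^5/well, serum-free DMEM) treated with compounds from 4 nM to 30 μM in 2% DMSO, then stimulated and lysed.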

PI3Kγ (p120γ) = target: T2, PI3Kγ (p120γ) (Homo sapiens, UniProt P48736); experiment: Inhibition of PI3K kinase activity (ADP Glo), PI3Kγ; settings: read-out: biochemical potency (PI3Kγ IC50)
T2 construct: purchased Promega V1761
Summary of the method: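 Recombinant p120γ (8 nM, 2× stock) was preincubated with compound for 1 h at rt in HEPES pH 7.4, NaCl, MgCl2 and 0.05% BSA. Reaction was started with PIP2 (0.1 mg/ml, 2×) and ATP (50 μM, 2×) and ran 60 min at rt. ADP formed was read by ADP-Glo luminescence, and IC50 came from a 4-parameter fit.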

[1] = Table 2, rhMCP-1 stimulated AKT pS473, read-out: cellular potency (PI3Kγ IC50)
[2] = Table 3, rhMCP-1 stimulated AKT pS473, read-out: cellular potency (PI3Kγ IC50)

T2 sequence (P48736 whole entry): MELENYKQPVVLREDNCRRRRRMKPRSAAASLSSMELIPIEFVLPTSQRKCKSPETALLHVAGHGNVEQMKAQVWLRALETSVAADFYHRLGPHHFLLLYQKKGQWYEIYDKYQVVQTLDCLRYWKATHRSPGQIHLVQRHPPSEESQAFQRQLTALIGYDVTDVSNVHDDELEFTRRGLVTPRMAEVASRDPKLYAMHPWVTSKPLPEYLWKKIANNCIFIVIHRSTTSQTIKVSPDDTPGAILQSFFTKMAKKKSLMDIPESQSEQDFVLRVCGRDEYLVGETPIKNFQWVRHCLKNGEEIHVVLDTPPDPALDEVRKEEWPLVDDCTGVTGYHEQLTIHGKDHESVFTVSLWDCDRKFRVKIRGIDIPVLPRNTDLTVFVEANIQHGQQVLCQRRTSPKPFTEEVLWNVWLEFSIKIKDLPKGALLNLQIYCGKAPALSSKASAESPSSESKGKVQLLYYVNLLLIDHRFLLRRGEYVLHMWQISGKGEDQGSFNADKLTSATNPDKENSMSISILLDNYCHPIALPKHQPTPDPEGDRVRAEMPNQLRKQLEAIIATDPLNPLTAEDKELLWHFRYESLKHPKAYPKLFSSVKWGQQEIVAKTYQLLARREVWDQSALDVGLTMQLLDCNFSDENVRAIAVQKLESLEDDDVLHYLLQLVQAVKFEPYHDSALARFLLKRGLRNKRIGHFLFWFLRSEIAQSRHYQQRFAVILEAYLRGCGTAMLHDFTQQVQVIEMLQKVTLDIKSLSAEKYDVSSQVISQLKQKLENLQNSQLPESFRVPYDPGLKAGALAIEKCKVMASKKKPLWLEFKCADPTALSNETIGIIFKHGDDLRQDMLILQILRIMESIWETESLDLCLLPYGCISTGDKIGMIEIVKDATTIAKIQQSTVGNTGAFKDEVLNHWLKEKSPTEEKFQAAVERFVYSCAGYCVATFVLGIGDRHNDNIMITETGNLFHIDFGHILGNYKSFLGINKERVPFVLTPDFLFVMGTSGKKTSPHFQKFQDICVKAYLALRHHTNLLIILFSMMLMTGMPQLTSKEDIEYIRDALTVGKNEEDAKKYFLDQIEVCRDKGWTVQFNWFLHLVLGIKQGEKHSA
T1 sequence (P48736 whole entry): as above

Row | SMILES | IC50 (PI3Kγ; [1]) | IC50 (PI3Kγ (p120γ); Table 2, p120γ) | IC50 (PI3Kγ; [2]) | IC50 (PI3Kγ (p120γ); Table 3, p120γ)
1 | Cc1cc(-c2ccn3nc(N)c(C(=O)N[C@H](C)c4ccccc4F)c3n2)cc2c1C(=O)N(C(C)(C)CO)C2 [Example 317] | > 1000 nM | < 100 nM | – | –
2 | Cc1cc(-c2ccn3nc(N)c(C(=O)NC4(C)COC4)c3n2)cc2c1C(=O)N(CC(C)(C)O)C2 [Example 318] | 100 to 1000 nM | < 100 nM | – | –
3 | Cc1cc(-c2ccn3nc(N)c(C(=O)NC4CC4)c3n2)cc2c1C(=O)N(CC(C)(C)O)C2 [Example 319] | 100 to 1000 nM | < 100 nM | – | –
4 | Cc1cc(-c2ccn3nc(N)c(C(=O)NC4COC4)c3n2)cc2c1C(=O)N(CC(C)(C)O)C2 [Example 320] | 100 to 1000 nM | < 100 nM | – | –
5 | Cc1cc(-c2ccn3nc(N)c(C(=O)N[C@@H](CO)C4CC4)c3n2)cc2c1C(=O)N(CC(C)(C)O)C2 [Example 321] | 100 to 1000 nM | < 100 nM | – | –
6 | Cc1cc(-c2ccn3nc(N)c(C(=O)NC4CC4)c3n2)cc2c1C(=O)N([C@H]1CC[C@@H](O)C1)C2 [Example 322] | 100 to 1000 nM | < 100 nM | – | –
7 | Cc1cc(-c2ccn3nc(N)c(C(=O)NC4CC4)c3n2)cc2c1C(=O)N([C@H]1CC[C@H](O)C1)C2 [Example 323] | 100 to 1000 nM | < 100 nM | – | –
8 | Cc1cc(-c2ccn3nc(N)c(C(=O)NC4CC4)c3n2)cc2c1C(=O)N([C@@H]1CCC[C@H](O)C1)C2 [Example 324] | 100 to 1000 nM | < 100 nM | – | –
9 | Cc1cc(-c2ccn3nc(N)c(C(=O)NC(C)CO)c3n2)cc2c1C(=O)N([C@@H]1CCC[C@@H](O)C1)C2 (stereo partly drawn) [Example 325] | > 1000 nM | < 100 nM | – | –
10 | Cc1cc(-c2ccn3nc(N)c(C(=O)NC(C)CO)c3n2)cc2c1C(=O)N([C@@H]1CCC[C@H](O)C1)C2 (stereo partly drawn) [Example 326] | > 1000 nM | < 100 nM | – | –
11 | Cc1cc(-c2ccn3nc(N)c(C(=O)NC4CC4)c3n2)cc2c1C(=O)N([C@H]1CCC[C@H](O)C1)C2 [Example 327] | 100 to 1000 nM | < 100 nM | – | –
12 | Cc1cc(-c2ccn3nc(N)c(C(=O)NC4CC4)c3n2)cc2c1C(=O)N([C@@H]1CCC[C@@H](O)C1)C2 [Example 328] | 100 to 1000 nM | < 100 nM | – | –
13 | Cc1cc(-c2ccn3nc(N)c(C(=O)NC(C)CO)c3n2)cc2c1C(=O)N([C@H]1CCC[C@H](O)C1)C2 (stereo partly drawn) [Example 329] | > 1000 nM | < 100 nM | – | –
14 | Cc1cc(-c2ccn3nc(N)c(C(=O)NC(C)CO)c3n2)cc2c1C(=O)N([C@H](C)c1ccncc1)C2 (stereo partly drawn) [Example 330] | > 1000 nM | < 100 nM | – | –
15 | Cc1cc(-c2ccn3nc(N)c(C(=O)NC4CC4)c3n2)cc2c1C(=O)N([C@H](C)c1ccncc1)C2 [Example 331] | > 1000 nM | < 100 nM | – | –
16 | Cc1cc(-c2ccn3nc(N)c(C(=O)NC(C)CO)c3n2)cc2c1C(=O)N([C@H](C)c1cccnc1)C2 (stereo partly drawn) [Example 332] | > 1000 nM | < 100 nM | – | –
17 | Cc1cc(-c2ccn3nc(N)c(C(=O)NC4CC4)c3n2)cc2c1C(=O)N([C@H](C)c1cccnc1)C2 [Example 333] | > 1000 nM | < 100 nM | – | –
18 | CC(=O)N1CC(NC(=O)c2c(N)nn3ccc(-c4cc5c(c(C(F)(F)F)c4)C(=O)N([C@@H](C)C4CC4)C5)nc23)C1 [Example 334] | – | – | 100 to 1000 nM | < 100 nM
19 | C[C@@H](C1CC1)N1Cc2cc(-c3ccn4nc(N)c(C(=O)NC(C)(C)CO)c4n3)cc(C(F)(F)F)c2C1=O [Example 335] | – | – | 100 to 1000 nM | < 100 nM
20 | C[C@@H](C1CC1)N1Cc2cc(-c3ccn4nc(N)c(C(=O)NCCCS(C)(=O)=O)c4n3)cc(C(F)(F)F)c2C1=O [Example 336] | – | – | 100 to 1000 nM | < 100 nM
21 | C[C@@H](C1CC1)N1Cc2cc(-c3ccn4nc(N)c(C(=O)NCCS(C)(=O)=O)c4n3)cc(C(F)(F)F)c2C1=O [Example 337] | – | – | 100 to 1000 nM | < 100 nM
22 | C[C@@H](C1CC1)N1Cc2cc(-c3ccn4nc(N)c(C(=O)NC5(CO)COC5)c4n3)cc(C(F)(F)F)c2C1=O [Example 338] | – | – | 100 to 1000 nM | < 100 nM
23 | COC[C@@H](C)NC(=O)c1c(N)nn2ccc(-c3cc4c(c(C(F)(F)F)c3)C(=O)N([C@@H](C)C3CC3)C4)nc12 [Example 339] | – | – | 100 to 1000 nM | < 100 nM
24 | Nc1nn2ccc(-c3cc4c(c(C(F)(F)F)c3)C(=O)N([C@@H](CO)C3CC3)C4)nc2c1C(=O)NC1CC1 [Example 340] | – | – | 100 to 1000 nM | < 100 nM
25 | C[C@@H](O)CCNC(=O)c1c(N)nn2ccc(-c3cc4c(c(C(F)(F)F)c3)C(=O)N([C@@H](C)C3CC3)C4)nc12 [Example 341] | – | – | 100 to 1000 nM | < 100 nM
26 | C[C@@H](C1CC1)N1Cc2cc(-c3ccn4nc(N)c(C(=O)NC5(CO)CC5)c4n3)cc(C(F)(F)F)c2C1=O [Example 342] | – | – | 100 to 1000 nM | < 100 nM

Row | SMILES | IC50 (PI3Kγ; [1]) | IC50 (PI3Kγ (p120γ); Table 2, p120γ) | IC50 (PI3Kγ; [2]) | IC50 (PI3Kγ (p120γ); Table 3, p120γ)
27 | CC[C@H](C)NC(=O)c1c(N)nn2ccc(-c3cc4c(c(C(F)(F)F)c3)C(=O)N([C@@H](C)C3CC3)C4)nc12 [Example 343] | – | – | 100 to 1000 nM | < 100 nM
28 | C[C@@H](C1CC1)N1Cc2cc(-c3ccn4nc(N)c(C(=O)NC[C@@H](O)CO)c4n3)cc(C(F)(F)F)c2C1=O [Example 344] | – | – | 100 to 1000 nM | < 100 nM
29 | C[C@@H](C1CC1)N1Cc2cc(-c3ccn4nc(N)c(C(=O)N[C@H]5CC[C@@](O)(C(F)(F)F)CC5)c4n3)cc(C(F)(F)F)c2C1=O [Example 345] | – | – | 100 to 1000 nM | < 100 nM
30 | C[C@H](O)CCNC(=O)c1c(N)nn2ccc(-c3cc4c(c(C(F)(F)F)c3)C(=O)N([C@@H](C)C3CC3)C4)nc12 [Example 346] | – | – | 100 to 1000 nM | < 100 nM
31 | C[C@@H](C1CC1)N1Cc2cc(-c3ccn4nc(N)c(C(=O)NC5CCS(=O)(=O)CC5)c4n3)cc(C(F)(F)F)c2C1=O [Example 347] | – | – | 100 to 1000 nM | < 100 nM
32 | C[C@@H](C1CC1)N1Cc2cc(-c3ccn4nc(N)c(C(=O)NC[C@H](O)CO)c4n3)cc(C(F)(F)F)c2C1=O [Example 348] | – | – | 100 to 1000 nM | < 100 nM
33 | C[C@@H](C1CC1)N1Cc2cc(-c3ccn4nc(N)c(C(=O)NC5CC5)c4n3)cc(C(F)(F)F)c2C1=O [Example 349] | – | – | 100 to 1000 nM | < 100 nM
34 | C[C@@H](C1CC1)N1Cc2cc(-c3ccn4nc(N)c(C(=O)Nc5ccnc(C#N)c5)c4n3)cc(C(F)(F)F)c2C1=O [Example 350] | – | – | 100 to 1000 nM | < 100 nM
35 | C[C@@H](C1CC1)N1Cc2cc(-c3ccn4nc(N)c(C(=O)Nc5cncc(F)c5)c4n3)cc(C(F)(F)F)c2C1=O [Example 351] | – | – | 100 to 1000 nM | < 100 nM
36 | C[C@@H](C1CC1)N1Cc2cc(-c3ccn4nc(N)c(C(=O)NCCNS(C)(=O)=O)c4n3)cc(C(F)(F)F)c2C1=O [Example 352] | – | – | 100 to 1000 nM | < 100 nM
37 | C[C@@H](C1CC1)N1Cc2cc(-c3ccn4nc(N)c(C(=O)N[C@@H](CO)C5CC5)c4n3)cc(C(F)(F)F)c2C1=O [Example 353] | – | – | 100 to 1000 nM | < 100 nM
38 | C[C@@H](C1CC1)N1Cc2cc(-c3ccn4nc(N)c(C(=O)Nc5ccc(CC(F)(F)F)nc5)c4n3)cc(C(F)(F)F)c2C1=O [Example 354] | – | – | 100 to 1000 nM | < 100 nM
39 | COc1cncc(NC(=O)c2c(N)nn3ccc(-c4cc5c(c(C(F)(F)F)c4)C(=O)N([C@@H](C)C4CC4)C5)nc23)c1 [Example 355] | – | – | 100 to 1000 nM | < 100 nM
40 | C[C@@H](C1CC1)N1Cc2cc(-c3ccn4nc(N)c(C(=O)N[C@H]5CCCNC5)c4n3)cc(C(F)(F)F)c2C1=O [Example 356] | – | – | 100 to 1000 nM | < 100 nM
41 | C[C@@H](C1CC1)N1Cc2cc(-c3ccn4nc(N)c(C(=O)N[C@H]5CNC[C@H]5O)c4n3)cc(C(F)(F)F)c2C1=O [Example 357] | – | – | > 1000 nM | < 100 nM
42 | C[C@@H](C1CC1)N1Cc2cc(-c3ccn4nc(N)c(C(=O)N[C@@H]5CCC[C@H](N)C5)c4n3)cc(C(F)(F)F)c2C1=O [Example 358] | – | – | 100 to 1000 nM | < 100 nM
43 | C[C@@H](C1CC1)N1Cc2cc(-c3ccn4nc(N)c(C(=O)N[C@H]5CNC[C@@H]5O)c4n3)cc(C(F)(F)F)c2C1=O [Example 359] | – | – | > 1000 nM | < 100 nM
44 | C[C@@H](C1CC1)N1Cc2cc(-c3ccn4nc(N)c(C(=O)N[C@@H]5CNC[C@H]5O)c4n3)cc(C(F)(F)F)c2C1=O [Example 360] | – | – | > 1000 nM | < 100 nM
45 | C[C@@H](C1CC1)N1Cc2cc(-c3ccn4nc(N)c(C(=O)N[C@@H](CO)C(F)(F)F)c4n3)cc(C(F)(F)F)c2C1=O [Example 361] | – | – | 100 to 1000 nM | < 100 nM
46 | C[C@@H](C1CC1)N1Cc2cc(-c3ccn4nc(N)c(C(=O)N[C@@H]5CCC[C@H](N(C)C)C5)c4n3)cc(C(F)(F)F)c2C1=O [Example 362] | – | – | 100 to 1000 nM | < 100 nM
47 | C[C@@H](C1CC1)N1Cc2cc(-c3ccn4nc(N)c(C(=O)Nc5ccccc5)c4n3)cc(C(F)(F)F)c2C1=O [Example 363] | – | – | > 1000 nM | < 100 nM
48 | COCC(NC(=O)c1c(N)nn2ccc(-c3cc4c(c(C(F)(F)F)c3)C(=O)N([C@@H](C)C3CC3)C4)nc12)C(C)C (stereo partly drawn) [Example 364] | – | – | 100 to 1000 nM | < 100 nM
49 | C[C@@H](C1CC1)N1Cc2cc(-c3ccn4nc(N)c(C(=O)NC5CC5c5ccccc5)c4n3)cc(C(F)(F)F)c2C1=O (stereo partly drawn) [Example 365] | – | – | 100 to 1000 nM | < 100 nM
50 | C[C@@H](C1CC1)N1Cc2cc(-c3ccn4nc(N)c(C(=O)N[C@H]5CCC[C@@H](N)C5)c4n3)cc(C(F)(F)F)c2C1=O [Example 366] | – | – | > 1000 nM | < 100 nM
51 | C[C@@H](C1CC1)N1Cc2cc(-c3ccn4nc(N)c(C(=O)N[C@H]5CCC[C@H](N)C5)c4n3)cc(C(F)(F)F)c2C1=O [Example 367] | – | – | > 1000 nM | < 100 nM
